Measurements from patent US20180332790A1 (priority 2015, published 2018).
Several values for one entry are separate records, joined by “and”; a condition that tells them apart may be missing. Equal entries are not always repeated. Entries after “also recorded” stand apart in the source; their conditions may differ.

Tests used:
[1] = tested on: maize; details: in vivo
[2] = tested on: maize; details: in vivo; remark: listed apart in the source

## CCCCCCCC/C=C\CCCCCCCC(=O)O[C@H](COC(=O)CCCCCCCCCCCCCCCCC)COP(=O)(O)OCCN [1-stearyl-2-oleoyl-sn-phosphatidylethanolamine]
[1]
  de novo haploid induction (in words): haploid inducing compound

## CCCCC/C=C\C/C=C\C/C=C\C/C=C\CCCC(=O)OC [AAME, arachidonic acid methyl ester]
[1]
  de novo haploid induction (in words): triggered de novo haploid induction

## CCCCCCCCCCCCCCCCCC(=O)OC[C@H](COP(=O)([O-])OCC[N+](C)(C)C)OC(=O)CCCCCCCCCCCCCCCCC [DSPC, 1,2-distearoyl-sn-glycero-3-phosphatidyl choline]
[1]
  de novo haploid formation (in words): achieved de novo haploid formation
  de novo haploid induction (in words): triggered de novo haploid induction; also recorded: highly active

## CCCCC/C=C\C/C=C\CCCCCCCC(=O)O [LLA, linoleic acid]
[2]
  decrease in embryo abortion frequency compared to control buffer: 2.9%
  effect on embryo abortion and kernel formation in haploid inducer crosses (in words): reduces the rate of embryo abortion and increases the rate of kernel formation; also recorded: increase the rate of viable kernel formation by reducing fertilization failure and embryo abortion
  effect on haploid induction rate / number of haploids in haploid inducer crosses (in words): boosted the haploid induction rate; also recorded: increase the number of haploids formed and/or the rate of haploid formation
  increase in haploid induction rate compared to control buffer: 1.5%
  increase in haploids recovered per ear compared to control buffer: 7.6 haploids per ear
  increase in number of kernels per ear compared to control buffer: 41 per ear
[1]
  de novo haploid induction (in words): triggered de novo haploid induction

## CCCCC/C=C\C/C=C\CCCCCCCC(=O)OCC [LLAEE, linoleic acid ethyl ester]
[2]
  AVERAGE/EAR HIR: 13.0% and 15.4%
  AVERAGE/EAR haploids: 23.1 and 27.9
  AVERAGE/EAR k. a. rate: 29.9% and 33.0%
  AVERAGE/EAR k. a. rate, vs control: −3.7% and −2.9%
  AVERAGE/EAR kernels: 194.1 and 194.6
  AVERAGE/EAR kernels, vs control: +43.3
  decrease in embryo abortion frequency compared to control buffer: 3.7%
  effect on embryo abortion and kernel formation in haploid inducer crosses (in words): reduces the rate of embryo abortion and increases the rate of kernel formation; also recorded: increase the rate of viable kernel formation by reducing fertilization failure and embryo abortion
  effect on haploid induction rate / number of haploids in haploid inducer crosses (in words): boosted the haploid induction rate; also recorded: increase the number of haploids formed and/or the rate of haploid formation
  increase in haploid induction rate compared to control buffer: 2.4%
  increase in haploids recovered per ear compared to control buffer: over 8 haploids per ear
  increase in number of kernels per ear compared to control buffer: over 43 per ear

## CCCCCCCC/C=C\CCCCCCCC(=O)OCC [OAEE, oleic acid ethyl ester]
[1]
  de novo haploid induction (in words): triggered de novo haploid induction

## CCCCCCCCCCCCCCCC(=O)OCC [PAEE, palmitic acid ethyl ester]
[1]
  de novo haploid induction (in words): induces haploids

## CCCCC/C=C\C/C=C\C/C=C\C/C=C\CCCC(=O)O [arachidonic acid]
[1]
  de novo haploid induction (in words): triggered

## CC1=C(CC/C(C)=C/CCC2=CC[C@H](C3=CC(=O)O[C@H]3O)O[C@H]2O)C(C)(C)CCC1 [manoalide, reference compound]
[1]
  de novo haploid induction (in words): triggered de novo haploid induction; also recorded: able to induce haploid formation de novo
